The NIST ThermoML archive (doi:10.1021/acs.jced.6b00655)

Experiment: xn = mol fraction of the nth substance listed
Details: 100 kPa, Liquid, Vibrating tube method

CCCC[N+]1(C)CCCC1.O=S(=O)([O-])C(F)(F)F [1-butyl-1-methylpyrrolidinium trifluoromethanesulfonate] + Cc1cccc(C)c1
283.15 K
Details | mass density [kg/m3]
x2 = 0 | 1263.17
x2 = 0.054 | 1253.29
x2 = 0.11 | 1241.72
x2 = 0.202 | 1221.84
x2 = 0.308 | 1195.52
x2 = 0.352 | 1184.04
x2 = 0.402 | 1170.32
x2 = 0.418 | 1165.83

CCCC[N+](C)(CCCC)CCCC.O=S(=O)([N-]S(=O)(=O)C(F)(F)F)C(F)(F)F [tributylmethylammonium bis((trifluoromethyl)sulfonyl)imide] + CCc1ccccc1
343.15 K
Details | mass density [kg/m3]
x2 = 0 | 1224.15
x2 = 0.105 | 1210.81
x2 = 0.203 | 1197.48
x2 = 0.295 | 1179.85
x2 = 0.389 | 1160.38
x2 = 0.461 | 1142.53
x2 = 0.584 | 1105.8
x2 = 0.701 | 1065.88
x2 = 0.732 | 1053.69

CCCC[N+](C)(CCCC)CCCC.O=S(=O)([N-]S(=O)(=O)C(F)(F)F)C(F)(F)F [tributylmethylammonium bis((trifluoromethyl)sulfonyl)imide] + c1ccccc1
343.15 K
Details | mass density [kg/m3]
x2 = 0 | 1224.15
x2 = 0.048 | 1220.37
x2 = 0.097 | 1216.25
x2 = 0.198 | 1204.31
x2 = 0.294 | 1188.64
x2 = 0.393 | 1168.17
x2 = 0.506 | 1139.35
x2 = 0.596 | 1112.34
x2 = 0.701 | 1076.48
x2 = 0.738 | 1062.44
x2 = 0.774 | 1048.36
x2 = 0.801 | 1037.22
x2 = 0.823 | 1028.14
x2 = 0.85 | 1016.43
x2 = 0.865 | 1010.24

CCCC[N+]1(C)CCCC1.N#CN=C=[N-] [1-butyl-1-methylpyrrolidinium dicyanamide] + Cc1ccc(C)cc1
283.15 K
Details | mass density [kg/m3]
x2 = 0 | 1022.94
x2 = 0.055 | 1019.77
x2 = 0.109 | 1015.55
x2 = 0.21 | 1009.54
x2 = 0.27 | 1005.7
x2 = 0.335 | 1000.17
x2 = 0.389 | 993.97

CCCC[N+](C)(C)C.O=S(=O)([N-]S(=O)(=O)C(F)(F)F)C(F)(F)F [butyltrimethylammonium bis(trifluoromethylsulfonyl)imide] + Cc1ccccc1C
343.15 K
Details | mass density [kg/m3]
x2 = 0 | 1348.32
x2 = 0.046 | 1343.67
x2 = 0.099 | 1331.9
x2 = 0.207 | 1306.39
x2 = 0.309 | 1276.95
x2 = 0.398 | 1246.25
x2 = 0.481 | 1213.91
x2 = 0.542 | 1191.25

CCCC[N+](C)(C)C.O=S(=O)([N-]S(=O)(=O)C(F)(F)F)C(F)(F)F [butyltrimethylammonium bis(trifluoromethylsulfonyl)imide] + Cc1cccc(C)c1
343.15 K
Details | mass density [kg/m3]
x2 = 0 | 1348.32
x2 = 0.057 | 1340.71
x2 = 0.099 | 1330.46
x2 = 0.2 | 1304.78
x2 = 0.305 | 1274.33
x2 = 0.411 | 1235.86
x2 = 0.45 | 1222.37
x2 = 0.502 | 1201.38
